From patent publication US7790742B2, “Substituted 4-phenyltetrahydroisoquinolines, pharmaceutical compositions thereof, methods for their preparation and therapeutic use” (Sanofi-Aventis Deutschland GmbH, priority 2004, dated 2010)
Values belong to the compound of their own block, whether it stands above or below them.

Key:
NHE3 of the rat = NHE3 of the rat (Rattus norvegicus, UniProt P26433); settings: read-out: half-maximum inhibitory concentration (IC50); cited from earlier work
NHE1 = NHE1 (Homo sapiens, UniProt P19634); experiment: Tiamenidine inhibitory action on NHE subtypes: NHE1; type: cell-based; settings: therapeutically utilizable concentration range
Excerpt: (§1) Compounds which are similar to clonidine but have a thiophene instead of the phenyl ring are disclosed in DE1941761. The structures of formula I disclosed and claimed herein differ from existing compounds by the fusing of a thieno-substituent to the imidazole moiety of the formula I or II. This distinction allows the above-described clonidine-like undesired cardiovascular effects mediated by alpha-adrenoreceptor action to be eliminated. […] The application WO03053434 proposes NHE3 inhibitors of the imidazoline type, the patent application WO 03101984 of the thiophene type and the application DE10304374 of the imidazole type.

NHE2 = molecular target: T1, NHE2 (Homo sapiens, UniProt Q9UBY0); experiment: Tiamenidine inhibitory action on NHE subtypes: NHE2; type: cell-based; settings: therapeutically utilizable concentration range
T1 sequence (Q9UBY0 1-812): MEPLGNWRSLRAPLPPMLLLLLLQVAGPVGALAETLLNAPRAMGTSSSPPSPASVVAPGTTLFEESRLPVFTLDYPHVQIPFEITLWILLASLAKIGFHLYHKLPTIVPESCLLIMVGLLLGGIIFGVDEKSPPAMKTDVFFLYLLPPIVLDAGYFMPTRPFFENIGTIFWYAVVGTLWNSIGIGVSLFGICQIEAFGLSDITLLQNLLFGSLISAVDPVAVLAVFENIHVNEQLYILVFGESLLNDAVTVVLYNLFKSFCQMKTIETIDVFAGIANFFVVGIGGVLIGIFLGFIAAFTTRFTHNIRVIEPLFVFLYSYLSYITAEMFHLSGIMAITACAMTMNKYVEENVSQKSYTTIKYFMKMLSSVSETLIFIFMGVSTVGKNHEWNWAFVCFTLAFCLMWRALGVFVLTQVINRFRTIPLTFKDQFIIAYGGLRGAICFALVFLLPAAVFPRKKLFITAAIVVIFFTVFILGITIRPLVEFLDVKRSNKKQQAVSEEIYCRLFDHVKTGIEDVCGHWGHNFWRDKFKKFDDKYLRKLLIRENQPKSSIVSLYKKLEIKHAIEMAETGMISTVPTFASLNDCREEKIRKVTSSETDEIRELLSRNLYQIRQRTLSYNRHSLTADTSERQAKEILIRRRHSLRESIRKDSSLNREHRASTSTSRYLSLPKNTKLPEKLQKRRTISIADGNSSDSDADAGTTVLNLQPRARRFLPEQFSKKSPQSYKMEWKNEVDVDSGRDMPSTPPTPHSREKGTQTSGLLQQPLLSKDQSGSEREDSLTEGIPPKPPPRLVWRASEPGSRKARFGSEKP
Excerpt: as §1

NHE3 [1] = molecular target: T2, NHE3 (Homo sapiens, UniProt P48764); experiment: Tiamenidine inhibitory action on NHE subtypes: NHE3; type: cell-based; settings: therapeutically utilizable concentration range
T2 construct: host or cells: cells, not specified
T2 sequence (P48764 26-834): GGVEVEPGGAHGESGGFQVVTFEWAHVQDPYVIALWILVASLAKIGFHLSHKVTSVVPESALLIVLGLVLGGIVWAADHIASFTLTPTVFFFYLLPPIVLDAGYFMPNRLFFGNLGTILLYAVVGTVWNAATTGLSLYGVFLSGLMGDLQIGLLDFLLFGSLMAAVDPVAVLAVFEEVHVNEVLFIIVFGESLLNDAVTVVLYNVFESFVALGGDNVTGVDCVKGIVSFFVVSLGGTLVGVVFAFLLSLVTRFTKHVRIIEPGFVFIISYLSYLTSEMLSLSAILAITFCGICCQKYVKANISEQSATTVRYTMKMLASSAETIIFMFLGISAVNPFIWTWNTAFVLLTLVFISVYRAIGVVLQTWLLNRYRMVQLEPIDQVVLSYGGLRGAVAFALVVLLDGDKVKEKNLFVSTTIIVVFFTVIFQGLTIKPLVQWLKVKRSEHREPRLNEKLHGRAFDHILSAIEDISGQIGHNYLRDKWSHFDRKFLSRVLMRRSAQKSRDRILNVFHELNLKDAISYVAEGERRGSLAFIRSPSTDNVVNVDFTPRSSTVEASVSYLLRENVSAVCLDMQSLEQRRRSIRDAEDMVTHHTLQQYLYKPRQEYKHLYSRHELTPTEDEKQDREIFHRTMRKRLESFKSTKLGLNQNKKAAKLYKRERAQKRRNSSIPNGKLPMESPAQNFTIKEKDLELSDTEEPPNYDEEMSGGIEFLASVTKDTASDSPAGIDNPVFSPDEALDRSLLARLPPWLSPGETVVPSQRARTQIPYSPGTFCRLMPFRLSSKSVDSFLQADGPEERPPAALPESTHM
Excerpt: as §1

NHE5 = molecular target: T3, NHE5 (Homo sapiens, UniProt Q14940); experiment: Tiamenidine inhibitory action on NHE subtypes: NHE5; type: cell-based; settings: therapeutically utilizable concentration range
T3 sequence (Q14940 1-896): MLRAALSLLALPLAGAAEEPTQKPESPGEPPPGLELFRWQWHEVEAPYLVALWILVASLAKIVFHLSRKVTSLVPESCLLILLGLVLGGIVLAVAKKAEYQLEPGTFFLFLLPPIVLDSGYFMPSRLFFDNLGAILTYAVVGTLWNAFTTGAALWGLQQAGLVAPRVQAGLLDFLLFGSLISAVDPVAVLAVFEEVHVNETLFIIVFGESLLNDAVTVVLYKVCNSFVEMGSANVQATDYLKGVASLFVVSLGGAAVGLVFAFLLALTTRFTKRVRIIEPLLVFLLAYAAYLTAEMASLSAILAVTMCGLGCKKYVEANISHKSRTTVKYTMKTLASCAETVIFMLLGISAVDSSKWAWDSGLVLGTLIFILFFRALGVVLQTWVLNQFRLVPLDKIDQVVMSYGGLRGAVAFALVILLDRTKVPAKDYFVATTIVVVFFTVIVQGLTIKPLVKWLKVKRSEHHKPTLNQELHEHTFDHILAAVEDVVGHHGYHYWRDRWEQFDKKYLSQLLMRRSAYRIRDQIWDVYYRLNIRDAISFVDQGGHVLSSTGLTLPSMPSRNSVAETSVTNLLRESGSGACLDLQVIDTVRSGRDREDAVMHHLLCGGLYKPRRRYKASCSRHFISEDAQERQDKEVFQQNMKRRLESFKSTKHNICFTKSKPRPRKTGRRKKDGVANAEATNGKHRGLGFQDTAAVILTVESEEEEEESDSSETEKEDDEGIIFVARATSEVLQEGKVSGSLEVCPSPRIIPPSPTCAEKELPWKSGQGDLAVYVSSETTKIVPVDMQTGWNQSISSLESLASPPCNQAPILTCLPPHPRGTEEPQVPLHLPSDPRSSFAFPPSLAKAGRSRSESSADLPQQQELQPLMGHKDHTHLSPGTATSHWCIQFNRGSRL
Excerpt: as §1

NHE3 [2] = molecular target: T2, NHE3; settings: indirect mechanism; cited from earlier work

Sequence of NHE1 (P19634 whole entry, species assumed): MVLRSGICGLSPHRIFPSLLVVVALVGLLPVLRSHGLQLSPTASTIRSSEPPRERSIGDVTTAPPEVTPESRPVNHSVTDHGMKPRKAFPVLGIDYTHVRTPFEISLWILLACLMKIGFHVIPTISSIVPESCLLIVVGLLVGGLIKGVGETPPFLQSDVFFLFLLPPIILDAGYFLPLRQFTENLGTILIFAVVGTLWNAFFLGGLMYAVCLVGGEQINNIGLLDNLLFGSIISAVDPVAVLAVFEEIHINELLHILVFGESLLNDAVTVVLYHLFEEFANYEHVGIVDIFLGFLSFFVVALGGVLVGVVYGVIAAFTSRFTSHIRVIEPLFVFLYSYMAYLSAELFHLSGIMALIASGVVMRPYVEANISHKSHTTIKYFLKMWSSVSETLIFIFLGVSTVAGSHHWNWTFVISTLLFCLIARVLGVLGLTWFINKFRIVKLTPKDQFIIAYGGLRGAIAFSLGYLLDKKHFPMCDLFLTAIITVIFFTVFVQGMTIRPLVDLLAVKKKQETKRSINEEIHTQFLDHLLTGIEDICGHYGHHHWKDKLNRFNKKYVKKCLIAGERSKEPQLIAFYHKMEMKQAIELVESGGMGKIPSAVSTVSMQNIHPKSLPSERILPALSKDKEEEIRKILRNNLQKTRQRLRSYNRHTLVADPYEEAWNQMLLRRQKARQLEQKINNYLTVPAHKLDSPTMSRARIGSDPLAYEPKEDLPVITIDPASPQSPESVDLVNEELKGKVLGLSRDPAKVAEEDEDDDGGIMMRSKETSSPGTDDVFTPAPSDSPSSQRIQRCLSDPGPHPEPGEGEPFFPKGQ
Sequence of NHE3 of the rat (P26433 29-831): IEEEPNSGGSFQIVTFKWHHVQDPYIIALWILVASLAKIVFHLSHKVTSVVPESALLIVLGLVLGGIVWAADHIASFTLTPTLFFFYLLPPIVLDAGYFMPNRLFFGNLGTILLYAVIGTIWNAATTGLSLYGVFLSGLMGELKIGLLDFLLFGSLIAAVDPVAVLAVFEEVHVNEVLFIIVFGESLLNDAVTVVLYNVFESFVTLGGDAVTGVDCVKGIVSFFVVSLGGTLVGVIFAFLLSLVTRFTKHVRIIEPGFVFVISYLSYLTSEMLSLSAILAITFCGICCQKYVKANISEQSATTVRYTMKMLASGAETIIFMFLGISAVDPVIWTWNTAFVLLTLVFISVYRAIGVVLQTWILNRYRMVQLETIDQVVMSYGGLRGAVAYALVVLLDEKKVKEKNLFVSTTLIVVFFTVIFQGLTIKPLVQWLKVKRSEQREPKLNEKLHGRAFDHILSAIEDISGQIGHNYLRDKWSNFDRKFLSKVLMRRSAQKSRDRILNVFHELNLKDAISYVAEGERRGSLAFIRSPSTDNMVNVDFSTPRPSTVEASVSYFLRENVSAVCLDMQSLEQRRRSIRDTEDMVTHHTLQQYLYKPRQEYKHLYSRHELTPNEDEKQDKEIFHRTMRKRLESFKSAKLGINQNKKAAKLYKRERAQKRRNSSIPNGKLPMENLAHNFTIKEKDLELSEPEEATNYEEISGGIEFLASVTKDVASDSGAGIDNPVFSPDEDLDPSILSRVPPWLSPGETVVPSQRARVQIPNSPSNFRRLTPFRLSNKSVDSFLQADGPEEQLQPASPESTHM

SMILES: Clc1cccc(Cl)c1N=C1NCCN1 [Clonidine]
IC50 (NHE3 of the rat): 620 µM

inhibitory action on NHE1 (NHE1): no relevant inhibitory actions | inhibitory action on NHE2 (NHE2): no relevant inhibitory actions | inhibitory action on NHE3 (NHE3 [1]): no relevant inhibitory actions | inhibitory action on NHE5 (NHE5): no relevant inhibitory actions
SMILES: Cc1csc(Cl)c1NC1=NCCN1 [tiamenidine]

SMILES: CC(C)[C@@H](CC[C@@H](C)[C@H]1CC[C@H]2[C@@H]3[C@H](O)C[C@H]4C[C@@H](NCCCNCCCCN)CC[C@]4(C)[C@H]3CC[C@]12C)OS(=O)(=O)O [squalamine]
time to maximum strength of action (NHE3 [2]): after one hour
